The source of these data is PubChem BioAssay AID743267 (Broad Institute, 2014).

The structures appear in SMILES notation.

This experiment relates to human bronchial epithelial cells, CFTR corrector, plate reader. The experiment is described as follows: rescue of ΔF508 CFTR function, airway epithelium – human bronchial epithelial cells, plate reader, cherry-pick, two tests, dose response (AID 743267).
[1] abbreviates: measured here: test 2 replicate run.
Setting [2] is: measured here: test 1 replicate run.

A word on the AC50: it is the concentration at which the activity in the assay is half-maximal. A low value points to greater potency. Under setting [1], `COc1cc(NC(=O)N2CCNC2=O)cc(C(=O)Nc2cccc(C(F)(F)F)c2)c1` returned an AC50 of 5.11 µM. On to `CCN1CCCC(OC(=O)c2cc(-c3ccccc3Cl)nc3ccccc23)C1` (stereo not drawn), for which, under setting [1], the AC50 worked out at 43.9 µM. The same measure, in the same setting: in the case of `COc1ccc(S(=O)(=O)NCc2ccccn2)cc1NC(=O)c1ccccc1F` it was 1.32 µM; in that of `CN[C@H]1CCc2cc(OC)c(OC)c(OC)c2-c2ccc(N(C)CC(OC)OC)c(=O)cc21`, 3.25 µM.

With `COc1ccc(S(=O)(=O)N2CC[C@@H]3[C@@H](CO)Nc4ccc(-c5ccc(C#N)cc5)cc4[C@@H]32)cc1`, under setting [2], the concentration at half-maximal activity (AC50) came to 1.57 µM. The compound `Cc1ccc(-c2ccc3c(c2)O[C@H](CN(C)Cc2ccccn2)[C@@H](C)CN([C@H](C)CO)S3(=O)=O)cc1` registered an AC50 under setting [2] of 5.08 µM.

For the compound `CCOC(=O)c1ccc(-c2c(-c3cc(OC)c(OC)c(OC)c3)noc2C)cc1F`, the AC50 under setting [1] was determined as 1.2 µM.

In turn, `Cc1ccc(N(C)S(=O)(=O)c2ccc(-c3cnc(C4CC4)o3)cc2)cc1` came in with an AC50 under setting [1] of 1.17 µM. `CCN1/C(=C\c2ccc3cc(C)ccc3[n+]2CC)Sc2cc(C)c(C)cc21` showed an AC50 under setting [1] of 9.9 µM.

The compound `CCN(CC)CCn1nc2c3c(cccc3c1=O)-c1ccccc1-2` came in with an AC50 under setting [1] of 1.1 µM. `COc1ccc(NC(=O)C(=O)NCC2CCCN2S(=O)(=O)c2cccs2)cc1` (stereo not drawn) came in with a half-maximal activity concentration (AC50) under setting [1] of 3.63 µM. Compound `CCN(CC)C1=CC2=CC(=C(C#N)C#N)CCC2CC1` (stereo not drawn) had an AC50 under setting [1] of 0.948 µM.

`CC1=NCCc2c1[nH]c1cc(O)ccc21` came in with an AC50 under setting [1] of 41.4 µM. The compound `COc1ccc(-c2ccc3oc(-c4ccc(OC)cc4)c(C#CCO)c3c2)cc1` registered a half-maximal activity concentration (AC50) under setting [1] above 50 µM. The same measure, in the same setting: under `COc1cc(/C=C2\SC(=Nc3ccc(Cl)c(C(=O)O)c3)NC2=O)c(Br)c(Br)c1O` stands 6.66 µM; under `CCc1ccc(N2CC(C(=O)Nc3ccccc3N3CCCC3)CC2=O)cc1` (stereo not drawn), 28.7 µM. On the same count and under the same terms, under `CC(=NNC(=S)Nc1ccc(C)cc1)c1ccccn1` stands 0.499 µM; under `CCCOCCOC(=O)c1[nH]c2c(c1C)C(=O)CC(c1cc(OC)ccc1OC)C2` (stereo not drawn), 3.69 µM. With `C[C@@H]1CN([C@@H](C)CO)C(=O)Cc2cc(N(C)C)ccc2O[C@@H]1CN(C)Cc1ccccc1`, the AC50 under setting [2] worked out at 3.78 µM. `COc1ccc(-c2cc(C(F)F)n3ncc(C(=O)N4CCc5ccccc54)c3n2)cc1`: the AC50 under setting [1] amounted to 16.1 µM. Turning to `O=C(NCCN1C(=O)S/C(=C\c2ccc(OC(F)F)cc2)C1=O)c1cnccn1`, under setting [1], the AC50 was 1.85 µM. Same read-out and setting: in the case of `Cc1nn(S(=O)(=O)c2ccc(Cl)cc2)c(C)c1Sc1ccc([N+](=O)[O-])cc1` it was above 32 µM; in that of `O=C1NC(=Nc2cccnc2)S/C1=C/c1ccc(F)cc1`, 9.27 µM; in that of `CCCCn1cnc2c(c(CC#N)nn2-c2ccccc2)c1=N`, above 50 µM. Still for that read-out and setting: in the case of `COc1cc2c(C#CCCO)c(-c3ccsc3)oc(=O)c2cc1OC` it was 5.52 µM; in that of `COc1nc(C)nc(NC(=O)NS(=O)(=O)c2ccccc2Cl)n1`, above 50 µM; in that of `COc1ccc2c(c1)/C(=C/c1cc(OC)c(OC)c(OC)c1)C(=O)N2`, 2.04 µM. Consider `CCc1ccccc1N(C)S(=O)(=O)c1ccc(-c2cc(C)no2)s1`, for which the AC50 under setting [1] was 6.87 µM. The same measure, in the same setting: under `C=CCN=c1scc(C)n1/N=C/c1ccc(O)c(O)c1` stands above 50 µM; under `Cc1ccc(/C=N/NC(=O)c2ccc3ccccc3c2)s1`, 2.05 µM. `C[C@H]1CN([C@@H](C)CO)S(=O)(=O)c2ccc(-c3ccc(C#N)cc3)cc2O[C@@H]1CN(C)Cc1ccccn1` returned an AC50 under setting [2] of 3.39 µM. With `CCC1(C)OC(c2ccccc2)=C/C(=C/C=C2C(=O)NC(=O)NC2=O)O1` (stereo not drawn), the AC50 under setting [1] is 38.7 µM. With `Cc1cc(NCc2ccccn2)n2ncc(-c3ccccc3)c2n1`, under setting [1], the half-maximal activity concentration (AC50) was determined as 15.9 µM. For `COCCNc1nc(Nc2ccc(C)cc2C)c2sccc2n1`, the AC50 under setting [1] was 2.34 µM. Take `CCN(c1cccc(C)c1)S(=O)(=O)c1ccc(-c2cc(C)no2)s1`: under setting [1], the AC50 was 5.94 µM. `COC(=O)C1=CN(c2ccc(OC)cc2OC)C(N)=C(C#N)C1c1ccccc1F` (stereo not drawn) came in with an AC50 under setting [1] of 1.23 µM. Same read-out and setting: in the case of `COc1ccc(-c2ccc(OC)c(OC)c2OC)cc1` it was 3.92 µM; in that of `Nc1ccn([C@@H]2O[C@H](CO)[C@@H](O)[C@@H]2O)c(=O)n1`, 0.541 µM.

Under setting [1], `Cc1cc2oc(C(=O)NCCc3ccc(S(N)(=O)=O)cc3)c(C)c2cc1C` came in with a half-maximal activity concentration (AC50) of 0.901 µM. Turning to `COc1cc(C(=O)c2cocc2C(=O)c2ccc3c(c2)OCO3)cc(OC)c1OC`, the AC50 under setting [1] stood at 0.451 µM.

`Cc1ccc2c(C)c3ccc4ccccc4c3c[n+]2c1` displayed a concentration at half-maximal activity (AC50) under setting [1] of 1.06 µM. In the case of `CC(C)Nc1ccc(Nc2ccnc3cc4ccccc4cc23)cc1`, the AC50 under setting [1] came out at 7.34 µM. Under setting [1], `O=c1cc(-c2ccccc2)[nH]c2ccc(F)cc12` had an AC50 above 50 µM. For `O=Nc1ccc(O)c2ncccc12`, the AC50 under setting [1] worked out at 3.57 µM. Consider `COc1cccc(S(=O)(=O)N2C[C@@H]3N[C@H](C2)C3c2ccc(-c3cccc(C)c3)cc2)c1` (stereo partly drawn), for which the concentration at half-maximal activity (AC50) under setting [2] is 16 µM. In the case of `Cc1ccc(N2CC(C(=O)N(C)CC(=O)Nc3ccc(Cl)c(C(F)(F)F)c3)CC2=O)cc1` (stereo not drawn), the AC50 under setting [1] was 33.3 µM. With `COC(=O)c1cc(C(=O)N2CCN(c3cccc(Cl)c3)CC2)cc([N+](=O)[O-])c1`, the AC50 under setting [1] is 0.383 µM.

Consider `Cc1cc(C)c(/C=C2\C(=O)Nc3ccccc32)[nH]1`, for which the AC50 under setting [1] was determined as 10.8 µM.
